{
  "source": "paper PMC7814854",
  "about": "(Biochemistry, 2019)",
  "molecular_target": "CMP-sialic acid synthetase (NmCSS) (Neisseria meningitidis, UniProt P0A0Z8)",
  "sequence (P0A0Z8 whole entry)": "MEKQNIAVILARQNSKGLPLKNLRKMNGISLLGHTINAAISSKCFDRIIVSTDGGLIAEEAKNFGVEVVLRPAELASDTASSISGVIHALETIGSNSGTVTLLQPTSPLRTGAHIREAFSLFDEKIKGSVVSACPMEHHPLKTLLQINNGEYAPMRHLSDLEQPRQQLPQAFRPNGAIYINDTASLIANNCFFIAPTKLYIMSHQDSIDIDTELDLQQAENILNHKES",
  "assay": "X-ray crystal structure",
  "format": "biochemical",
  "data": [
    {"smiles": "CC(=O)N[C@H]1[C@H]([C@H](O)[C@H](O)CO)OC(C(=O)O)=C[C@@H]1O", "note": "[Neu5Ac2en, 2-deoxy-2,3-dehydro-N-acetylneuraminic acid]", "values": [
      {"measurement": "IC50", "result": "130 ± 10", "unit": "µM"}
    ]}
  ]
}
